Results from article PMC1764880, “Acyl-CoA-binding and self-associating properties of a recombinant 13.3 kDa N-terminal fragment of diacylglycerol acyltransferase-1 from oilseed rape” (BMC Biochemistry, 2006).

Legend:
[1] = target: T1, BnDGAT1(1–116)His6 (Brassica napus, UniProt Q9XGR5); assay: Lipidex-1000 competition binding against [[…]-14C]oleoyl-CoA; details: 8 μM free CoA displacing 19 μM [1-14C]oleoyl-CoA, 0.2 μM protein
T1 construct: gene DGAT1; N-terminal hydrophilic cytosolic fragment, residues 1-116, followed by AALE linker and C-terminal His6 (tag kept); pET26b(+), E. coli BL21(DE3), Ni-NTA purified; calculated mass 13,278 Da; self-associates to dimer and tetramer; contains peptide 21-LDRLHRRKSSSDSSN-35
T1 sequence (Q9XGR5 1-116): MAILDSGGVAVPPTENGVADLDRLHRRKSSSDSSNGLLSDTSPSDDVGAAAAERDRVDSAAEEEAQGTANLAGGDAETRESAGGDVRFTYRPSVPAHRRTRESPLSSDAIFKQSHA

[2] = target: T1, BnDGAT1(1–116)His6; assay: Lipidex-1000 radioligand binding, Scatchard plot; details: read-out: dissociation constant

Kd [2] [µM] | Structure (SMILES) | Lipidex-1000 competition binding against [1-14C]oleoyl-CoA [1]
– | CC(C)(COP(=O)(O)OP(=O)(O)OC[C@H]1O[C@@H](n2cnc3c(N)ncnc32)[C@H](O)[C@@H]1OP(=O)(O)O)[C@@H](O)C(=O)NCCC(=O)NCCS [CoA] | free CoA or oleoyl-CoA was effective in displacing a similar quantity of radiolabeled ligand
~2 | CCCCCCCC/C=C\CCCCCCCCCCCC(=O)SCCNC(=O)CCNC(=O)[C@H](O)C(C)(C)COP(=O)(O)OP(=O)(O)OC[C@H]1O[C@@H](n2cnc3c(N)ncnc32)[C@H](O)[C@@H]1OP(=O)(O)O [erucoyl-CoA] | –
~17 | CCCCCCCC/C=C\CCCCCCCC(=O)SCCNC(=O)CCNC(=O)[C@H](O)C(C)(C)COP(=O)(O)OP(=O)(O)OC[C@H]1O[C@@H](n2cnc3c(N)ncnc32)[C@H](O)[C@@H]1OP(=O)(O)O [oleoyl-CoA] | –
